# Data from patent US8404856B2, “Non-nucleoside reverse transcriptase inhibitors” (Merck Sharp & Dohme Corp., priority 2007, dated 2013).
# Where a name gives a salt, the structure may show the parent alone. Read-outs that look alike come from different tables or passages of the source.
# What was measured:
# T-lymphoid cells = type: cell-based
# Method: Cytotoxicity was determined by microscopic examination of the cells in each well in the spread assay, wherein a trained analyst observed each culture for any of the following morphological changes as compared to the control cultures: pH imbalance, cell abnormality, cytostatic, cytopathic, or crystallization (i.e., the compound is not soluble or forms crystals in the well). The toxicity value assigned to a given compound is the lowest concentration of the compound at which one of the above changes is observed.
# [1] = test system: HIV strain containing the K103N mutation; assay: Spread assay: inhibition of acute HIV-1 infection of T-lymphoid cells (K103N); type: cell-based; settings: Human immunodeficiency virus 1, T-lymphoid, read-out: Spread (K103N) CIC95 (10% FBS)
# Method: (§1) Assays for the inhibition of acute HIV-1 infection of T-lymphoid cells (alternatively referred to herein as the “spread assay”) were conducted in accordance with Vacca, J. P. et al., Proc. Natl. Acad. Sci. USA 1994, 91: 4096. The assays tested for inhibition of wild type HIV-1 and of HIV strains containing the Y181C or K103N mutation. […] Table C also reports the CIC95 values of certain of the title compounds of Examples 1-25 obtained in the assays employing the Y181C mutant strain and the K103N mutant strain.
# wild type HIV-1 = assay: Spread assay: inhibition of acute HIV-1 infection of T-lymphoid cells (WT); type: cell-based; settings: Human immunodeficiency virus 1, T-lymphoid, read-out: Spread (WT) CIC95 (10% FBS)
# Method: as §1
# [2] = biological target: T1, HIV reverse transcriptase with the K103N mutation (Human immunodeficiency virus type 1 group M subtype B, UniProt P04585, K690N); assay: ECL assay for inhibition of mutant HIV reverse transcriptase (K103N); type: biochemical, HIV-1
# T1 construct: made in house
# Method: (§2) 100 μL reaction mixtures were initiated with a combination of primer-template substrate (10 nM final concentration) and dNTPs (0.6 μM dNTPs, 1.25 μM BrdUTP). The heterodimeric nucleic acid substrate was generated by annealing the DNA primer pD500 (described in Shaw-Reid et al., J. Biol. Chem., 278: 2777-2780; obtained from Integrated DNA Technologies) to t500, a 500 nucleotide RNA template created by in vitro transcription (see Shaw-Reid et al., J. Biol. Chem., 278: 2777-2780). After 1 hour incubation at 37° C., reactions were quenched by 10 μL of 1 N NaOH. Microtiter plates were incubated for an additional 30 minutes at room temperature and then neutralized with 10 μL of 1 N HCl. A mixture of detection buffer containing ruthenylated anti-BrdU antibody and streptavidin coated magnetic beads were added to the plate and incubated at room temperature for 1.5 hours prior to quantification via electrochemiluminescence instrument.
# (§3) Analogous assays were conducted substituting mutant HIV strains to determine the […] inhibition of compounds of the present invention against mutant HIV reverse transcriptase. In one strain the reverse transcriptase has the Y181C mutation and in the other strain the reverse transcriptase has the K103N mutation. The mutations were generated with the […] site-directed mutagenesis kit (Stratagene).
# [3] = test system: HIV strain containing the Y181C mutation; assay: Spread assay: inhibition of acute HIV-1 infection of T-lymphoid cells (Y181C); type: cell-based; settings: Human immunodeficiency virus 1, T-lymphoid, read-out: Spread (Y181C) CIC95 (10% FBS)
# Method: as §1
# [4] = biological target: HIV-1 RT enzyme (wild-type) (Human immunodeficiency virus type 1 group M subtype B, UniProt P04585); assay: ECL assay for inhibition of HIV reverse transcriptase (WT); type: biochemical
# Method: as §2
# [5] = biological target: T2, HIV reverse transcriptase with the Y181C mutation (Human immunodeficiency virus type 1 group M subtype B, UniProt P04585, Y768C); assay: ECL assay for inhibition of mutant HIV reverse transcriptase (Y181C); type: biochemical, HIV-1
# T2 construct: made in house
# Method: as §2, §3
# [6] = K103N mutant RT, read-out: ECL Assay (K103N) IC50
# [7] = wild-type HIV-1 RT, read-out: ECL Assay (WT) IC50
# [8] = Y181C mutant RT, read-out: ECL Assay (Y181C) IC50
SMILES,Cytotoxicity: no cytotoxicity at concentrations up to (T-lymphoid cells),IC95 [1],"IC95 (wild type HIV-1; wild type HIV-1, 10% FBS)","IC50 [2, 6]",IC95 [3],"IC50 [4, 7]","IC50 [5, 8]",IC95 (wild type HIV-1),IC50 [2],IC50 [4],IC50 [5]
"N#Cc1cc(Cl)cc(Oc2c(F)c(NCc3n[nH]c4ncccc34)nc(F)c2Cl)c1 [Compound 10-4, 3-chloro-5-({3-chloro-2,5-difluoro-6-[(1H-pyrazolo[3,4-b]pyridin-3-ylmethyl)amino]pyridin-4-yl}oxy)benzonitrile]",> 833 nM,62 nM,28 nM,3.2 nM,46 nM,0.5 nM,0.6 nM,,,,
"N#Cc1cc(Cl)cc(Oc2c(C(F)(F)F)ccn(Cc3n[nH]c4ncccc34)c2=O)c1 [Compound 13-2, 3-chloro-5-{[2-oxo-1-(1H-pyrazolo[3,4-b]pyridin-3-ylmethyl)-4-(trifluoromethyl)-1,2-dihydropyridin-3-yl]oxy}benzonitrile]",> 833 nM,6 nM,4 nM,2.6 nM,8 nM,1.6 nM,2 nM,,,,
"NS(=O)(=O)c1ccc(NC(=O)Cn2ccc(C(F)(F)F)c(Oc3cc(Cl)cc(Br)c3)c2=O)c(Cl)c1 [Compound 16, N-[4-(aminosulfonyl)-2-chlorophenyl]-2-[3-(3-bromo-5-chlorophenoxy)-2-oxo-4-(trifluoromethyl)pyridin-1(2H)-yl]acetamide]",> 833 nM,21 nM,8 nM,2.8 nM,30 nM,1.9 nM,2.6 nM,,,,
"N#Cc1cc(Cl)cc(Oc2c(C(F)(F)F)ccn(Cc3n[nH]c4nc(N)ccc34)c2=O)c1 [Compound 17-2, 3-{[3-(3-chloro-5-cyanophenoxy)-2-oxo-4-(trifluoromethyl)pyridin-1(2H)-yl]methyl}-1H-pyrazolo[3,4-b]pyridin-6-aminium trifluoroacetate]",> 833 nM,11 nM,,,42 nM,,,6 nM,3.1 nM,1.9 nM,2.4 nM
"N#Cc1cc(C#N)cc(Oc2c(C(F)(F)F)ccn(Cc3n[nH]c4ncccc34)c2=O)c1 [Compound 18-4, 5-{[2-oxo-1-(1H-pyrazolo[3,4-b]pyridine-3-ylmethyl)-4-(trifluoromethyl)-1,2-dihydropyridin-3-yl]oxy}isophthalonitrile]",> 833 nM,6 nM,7 nM,5.1 nM,8 nM,3.4 nM,4.1 nM,,,,
"O=c1c(Oc2cc(Cl)cc(Cl)c2)c(C(F)(F)F)ccn1Cc1n[nH]c2ncccc12 [Compound 19-4, 3-(3,5-dichlorophenoxy)-1-(1H-pyrazolo[3,4-b]pyridin-3-ylmethyl)-4-(trifluoromethyl)pyridin-2(1H)-one]",> 833 nM,21 nM,9 nM,2.1 nM,48 nM,1.1 nM,1.5 nM,,,,
"Cl.Nc1ccc2c(Cn3ccc(C(F)(F)F)c(Oc4cc(Cl)cc(Cl)c4)c3=O)n[nH]c2n1 [Compound 20-3, 3-{[3-(3,5-dichlorophenoxy)-2-oxo-4-(trifluoromethyl)pyridin-1(2H)-yl]methyl}-1H-pyrazolo[3,4-b]pyridin-6-aminium chloride]",> 833 nM,87 nM,20 nM,,169 nM,,,,5.9 nM,1.6 nM,1.6 nM
"N#Cc1cc(Cl)cc(Oc2c(Cl)ccn(Cc3n[nH]c4nc(N)ccc34)c2=O)c1.O=C(O)C(F)(F)F [Compound 22, 3-({1-[(6-amino-1H-pyrazolo[3,4-b]pyridin-3-yl)methyl]-4-chloro-2-oxo-1,2-dihydropyridin-3-yl}oxy)-5-chlorobenzonitrile trifluoroacetate]",> 833 nM,7 nM,2 nM,,63 nM,,,,2.1 nM,1.3 nM,1.8 nM
"N#Cc1cc(Cl)cc(Oc2c(Cl)c(Cl)cn(Cc3n[nH]c4ncccc34)c2=O)c1 [Compound 23-2, 3-chloro-5-{[4,5-dichloro-2-oxo-1-(1H-pyrazolo[3,4-b]pyridin-3-ylmethyl)-1,2-dihydropyridin-3-yl]oxy}benzonitrile]",> 833 nM,11 nM,5 nM,1.6 nM,15 nM,0.96 nM,1.3 nM,,,,
"N#Cc1cc(Cl)cc(Oc2cc(Cc3n[nH]c4ncccc34)[nH]c(=O)c2Cl)c1 [Compound 24-7, 3-Chloro-5-{[3-chloro-2-oxo-6-(1H-pyrazolo[3,4-b]pyridin-3-ylmethyl)-1,2-dihydropyridin-4-yl]oxy}benzonitrile]",> 833 nM,13 nM,2.4 nM,1.7 nM,6.6 nM,0.9 nM,1 nM,,,,
